Assay [1] deals with Mus musculus. The assay is described as follows: Effect on rectal temperature in mice at dose of 20 mg/kg po. Type of assay: functional.
Assay [2] relates to Mus musculus. The assay is described as follows: Effect on rectal temperature in mice at dose of 10 mg/kg sc. It counts as functional.
Assay [3] is filed under the species Mus musculus. The experiment in a line: Effect in the social interaction behavioral test in mice. Type of assay: functional.
Assay [4] concerns Mus musculus. The assay is described as follows: Effect on rectal temperature in mice at dose of 5 mg/kg sc. Type of assay: functional.
Assay [5] has as its system Mus musculus. The assay is described as follows: Effect on rectal temperature in mice at dose of 30 mg/kg po. Type of assay: functional.
In assay [6] the test system is Mus musculus. The experiment in a line: Effect on rectal temperature in mice at dose of 0.5 mg/kg sc. Type of assay: functional.
Assay [7] deals with Mus musculus. The assay is described as follows: Effect on rectal temperature in mice at dose of 2.5 mg/kg sc. It counts as functional.
Assay [8] concerns the target 5-hydroxytryptamine receptor 2A (Rattus norvegicus, UniProt P14842). The assay is described as follows: Compound was evaluated for the binding affinity towards 5-hydroxytryptamine 2A receptor using [3H]ketanserin radioligand.
The target in assay [9] is T1, Adrenergic receptor alpha-1 (Rattus norvegicus, UniProt P15823+P23944+P43140).
T1 sequence (P15823 whole entry): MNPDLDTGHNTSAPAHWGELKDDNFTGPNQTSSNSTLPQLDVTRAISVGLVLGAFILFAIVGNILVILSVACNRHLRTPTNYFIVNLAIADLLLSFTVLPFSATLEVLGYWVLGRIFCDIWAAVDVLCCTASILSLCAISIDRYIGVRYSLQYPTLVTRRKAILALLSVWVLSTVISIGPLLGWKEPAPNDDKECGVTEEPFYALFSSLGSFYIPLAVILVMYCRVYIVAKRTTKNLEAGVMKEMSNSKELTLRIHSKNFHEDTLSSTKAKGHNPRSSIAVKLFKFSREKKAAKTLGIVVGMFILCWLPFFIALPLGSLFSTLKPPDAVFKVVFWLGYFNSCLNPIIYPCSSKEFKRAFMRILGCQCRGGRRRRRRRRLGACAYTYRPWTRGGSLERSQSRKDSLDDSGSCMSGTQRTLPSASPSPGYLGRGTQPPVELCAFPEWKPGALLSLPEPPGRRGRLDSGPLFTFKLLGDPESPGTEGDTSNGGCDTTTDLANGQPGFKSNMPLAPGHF
T1 sequence (P23944 whole entry): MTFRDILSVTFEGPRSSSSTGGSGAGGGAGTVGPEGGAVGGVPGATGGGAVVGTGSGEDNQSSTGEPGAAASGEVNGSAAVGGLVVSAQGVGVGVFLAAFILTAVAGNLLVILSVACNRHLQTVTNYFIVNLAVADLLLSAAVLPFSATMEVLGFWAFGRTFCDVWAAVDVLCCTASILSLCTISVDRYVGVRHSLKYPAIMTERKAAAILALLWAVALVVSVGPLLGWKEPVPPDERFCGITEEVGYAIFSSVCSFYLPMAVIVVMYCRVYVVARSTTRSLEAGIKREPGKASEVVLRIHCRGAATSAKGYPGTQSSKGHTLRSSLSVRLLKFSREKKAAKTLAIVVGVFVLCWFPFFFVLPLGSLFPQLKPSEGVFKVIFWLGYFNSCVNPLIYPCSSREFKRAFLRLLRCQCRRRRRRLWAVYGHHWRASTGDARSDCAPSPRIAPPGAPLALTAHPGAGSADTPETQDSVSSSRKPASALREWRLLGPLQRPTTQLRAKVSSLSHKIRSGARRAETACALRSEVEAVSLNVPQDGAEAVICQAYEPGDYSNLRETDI
T1 sequence (P43140 whole entry): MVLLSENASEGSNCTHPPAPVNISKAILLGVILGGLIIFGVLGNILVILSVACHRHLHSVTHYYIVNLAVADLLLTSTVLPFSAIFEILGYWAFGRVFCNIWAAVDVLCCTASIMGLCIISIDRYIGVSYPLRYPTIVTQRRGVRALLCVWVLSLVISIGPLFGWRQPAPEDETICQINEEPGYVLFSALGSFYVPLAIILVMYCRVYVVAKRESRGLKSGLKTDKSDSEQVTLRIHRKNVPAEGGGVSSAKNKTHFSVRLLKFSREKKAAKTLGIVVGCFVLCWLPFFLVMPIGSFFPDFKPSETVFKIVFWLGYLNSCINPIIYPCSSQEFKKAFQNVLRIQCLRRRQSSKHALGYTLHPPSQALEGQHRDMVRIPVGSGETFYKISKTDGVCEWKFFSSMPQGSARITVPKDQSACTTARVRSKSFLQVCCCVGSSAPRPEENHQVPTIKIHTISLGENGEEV
The experiment in a line: Binding affinity towards alpha-1 adrenergic receptor using [3H]prazosin radioligand. It counts as protein assay.

The subject of assay [10] is Mus musculus. The assay is described as follows: Effect on rectal temperature in mice at dose of 10 mg/kg po. It counts as functional.
The test system of assay [11] is Mus musculus. The assay is described as follows: Effect on rectal temperature in mice at dose of 40 mg/kg po. Type of assay: functional.
Assay [12] concerns Mus musculus. The assay is described as follows: Effect on rectal temperature in mice at dose of 20 mg/kg sc. Type of assay: functional.
The target of assay [13] is T2, 5-hydroxytryptamine receptor 1A (Rattus norvegicus, UniProt P19327).
T2 sequence (P19327 whole entry): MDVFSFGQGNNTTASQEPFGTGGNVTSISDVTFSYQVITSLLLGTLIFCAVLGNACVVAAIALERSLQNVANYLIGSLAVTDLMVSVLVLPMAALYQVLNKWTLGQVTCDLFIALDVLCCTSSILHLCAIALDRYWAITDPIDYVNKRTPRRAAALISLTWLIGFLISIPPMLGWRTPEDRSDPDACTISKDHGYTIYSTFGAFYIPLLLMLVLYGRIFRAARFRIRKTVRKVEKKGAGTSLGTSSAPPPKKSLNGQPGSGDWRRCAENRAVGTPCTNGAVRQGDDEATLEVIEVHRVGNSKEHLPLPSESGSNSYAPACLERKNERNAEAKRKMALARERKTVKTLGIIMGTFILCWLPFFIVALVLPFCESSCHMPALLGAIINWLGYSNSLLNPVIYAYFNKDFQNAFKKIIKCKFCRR
The assay is described as follows: Binding affinity towards rat 5-hydroxytryptamine 1A receptor using [3H]8-OH-DPAT radioligand.

In assay [14] the target is D(2) dopamine receptor (Rattus norvegicus, UniProt P61169). The assay is described as follows: Binding affinity towards dopamine receptor D2 using [3H]-raclopride radioligand.

Molecules are shown by their SMILES. Where only a bound is given, the exact number is not on record here.

A word on the ED50: it is the dose at which the effect has come halfway, by size or by number of responders. Usually Ki stands for the equilibrium dissociation constant of an inhibitor or competing ligand from its target.

Sequence of D(2) dopamine receptor (P61169 whole entry): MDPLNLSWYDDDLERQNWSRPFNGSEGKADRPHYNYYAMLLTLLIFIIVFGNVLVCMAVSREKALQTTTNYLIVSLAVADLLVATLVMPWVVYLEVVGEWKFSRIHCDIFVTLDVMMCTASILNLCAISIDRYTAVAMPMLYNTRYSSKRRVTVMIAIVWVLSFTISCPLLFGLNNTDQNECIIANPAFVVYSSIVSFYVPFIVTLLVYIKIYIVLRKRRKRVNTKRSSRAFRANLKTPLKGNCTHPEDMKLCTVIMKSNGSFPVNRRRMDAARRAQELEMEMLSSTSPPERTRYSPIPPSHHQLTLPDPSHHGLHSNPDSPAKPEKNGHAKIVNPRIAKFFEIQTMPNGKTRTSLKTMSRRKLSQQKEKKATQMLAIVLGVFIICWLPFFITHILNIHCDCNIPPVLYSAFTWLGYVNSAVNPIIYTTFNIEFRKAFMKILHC
Sequence of 5-hydroxytryptamine receptor 2A (P14842 whole entry): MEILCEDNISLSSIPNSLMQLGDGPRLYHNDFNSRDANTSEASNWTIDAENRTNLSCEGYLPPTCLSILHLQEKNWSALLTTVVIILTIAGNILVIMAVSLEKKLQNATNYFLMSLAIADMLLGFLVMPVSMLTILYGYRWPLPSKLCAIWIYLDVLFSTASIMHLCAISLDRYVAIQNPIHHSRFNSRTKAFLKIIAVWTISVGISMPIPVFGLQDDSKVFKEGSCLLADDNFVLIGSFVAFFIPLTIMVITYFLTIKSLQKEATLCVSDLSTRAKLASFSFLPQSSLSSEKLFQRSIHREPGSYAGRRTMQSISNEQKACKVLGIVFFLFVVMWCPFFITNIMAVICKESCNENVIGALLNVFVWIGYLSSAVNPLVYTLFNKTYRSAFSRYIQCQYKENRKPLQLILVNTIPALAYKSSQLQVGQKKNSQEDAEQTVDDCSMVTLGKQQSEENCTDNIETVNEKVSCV

Take `COc1ccccc1N1CCN(CN2C(=O)C3CCCCN3C2=O)CC1` (centres undefined): the T decrease is 0.22 °C in [1]; -1.46 °C in [2]; -0.78 °C in [4]; -0.28 °C in [5]; 0.37 °C in assay [6]; 0.06 °C in assay [7]. Moreover, the values for the T decrease in assay [10], in assay [11] and in [12] were -0.3 °C, -0.85 °C and -1.56 °C, respectively. For the same compound, in assay [3], the ED50 was determined as 3.58 mg/kg. Further, the Max effect in assay [3] worked out at 130.8 s. Further, the Ki is over 1000 nM in assay [8], over 1000 nM in assay [9], 31.7 nM in assay [13] and over 10000 nM in assay [14].

As to `O=C1C2CCCCN2C(=O)N1CCCCN1CCN(c2cccc(C(F)(F)F)c2)CC1` (centres undefined), the T decrease is -0.55 °C in [1]; -1.55 °C in assay [2]; -0.92 °C in assay [4]; -1.23 °C in assay [5]; -0.58 °C in [6]; -0.77 °C in assay [7]. Moreover, the T decrease in assay [10] is 0.07 °C; in [11], -1 °C; in [12], -2.73 °C. The compound further displayed a median effective dose (ED50) in assay [3] of 1.25 mg/kg. This compound also registered a Max effect in [3] of 56.5 s. Further, the inhibition constant (Ki) came out at 72.4 nM in assay [9], 9.9 nM in assay [13] and 90.6 nM in assay [14].

Take `O=C1C2CCCCN2C(=O)N1CN1CCN(c2cccc(Cl)c2)CC1` (centres undefined): the Ki in assay [9] is 135 nM; in [13], 57.7 nM; in [14], over 10000 nM.

Consider `O=C1C2CCCCN2C(=O)N1CCN1CCN(c2ccc([N+](=O)[O-])cc2)CC1` (centres undefined), for which the Ki in assay [9], in [13] and in assay [14] was over 10000 nM each time.

With `O=C1C2CCCCN2C(=O)N1CN1CCN(c2ccc(F)cc2)CC1` (centres undefined), the values for the Ki in assay [9], in [13] and in [14] were 869 nM, 444 nM and over 10000 nM, respectively.

Take `O=C1C2CCCN2C(=O)N1CCCCN1CCN(c2ccc([N+](=O)[O-])cc2)CC1` (centres undefined): the figures for the inhibitory constant (Ki) in [9], in assay [13] and in [14] were 247 nM, over 1000 nM and over 1000 nM, respectively.

Consider `COc1ccccc1N1CCN(CCCCN2C(=O)C3CCCN3C2=O)CC1` (centres undefined), for which the Ki is 8.3 nM in assay [9], 5.5 nM in [13] and 107 nM in assay [14].

As for `O=C1C2CCCN2C(=O)N1CCCCN1CCN(c2cccc(C(F)(F)F)c2)CC1` (centres undefined), the Ki in assay [9] was 64.9 nM; in assay [13], 2.4 nM; in assay [14] it was over 1000 nM.

For the compound `O=C1C2CCCCN2C(=O)N1CCN1CCN(c2cccc(C(F)(F)F)c2)CC1` (centres undefined), the values for the Ki in [9], in assay [13] and in assay [14] were over 1000 nM, 65.8 nM and over 1000 nM, respectively.

Take `CCCN(CCC)C1CCc2cccc(O)c2C1` (centres undefined) [8-OH-DPAT]: the T decrease is -2.26 °C in assay [2], -1.66 °C in assay [4], -0.9 °C in assay [6] and -1.7 °C in assay [7]. In assay [3], this compound gave an ED50 of 0.58 mg/kg. Moreover, the Max effect in [3] stood at 132.2 s.

As for `O=C1C2CCCN2C(=O)N1CCCN1CCN(c2cccc(C(F)(F)F)c2)CC1` (centres undefined), the Ki in [9] was 109 nM; in [13] it was 3.8 nM; in [14], over 1000 nM.

These data come from ChEMBL document CHEMBL1129734, “Synthesis and structure-activity relationships of a new model of arylpiperazines. 1. 2-[[4-(o-methoxyphenyl)piperazin-1-yl]methyl]-1, 3-dioxoperhydroimidazo[1,5-alpha]pyridine: a selective 5-HT1A receptor agonist” (J Med Chem, 1996).
